# Tested on: Cholesterol Synthesis in HepG2 Cells
# Assay: Determination of cholesterol synthesis in HepG2 cells (14C-acetate incorporation into the non-saponifiable lipid/sterol fraction)
# Assay type: cell-based
# Conditions: mean of three
# Experimental: Determination of Cholesterol Synthesis in HepG2 Cells (cf. Fahrner, J. et al., Eur. J. Biochem. 213: 1067-1073 (1993); Gebhardt, R., Lipids 28: 613-619 (1993); Pill, J. et al., Z. Anal. Chem. 332: 512-513 (1985)
# To detect an effect on cholesterol biosynthesis by test substances, HepG2 cell cultures were used. These cells were cultured up to confluence in 35 mm 6-well cell culture incubation dishes in DMEM medium (Gibco, Eggenstein, Germany) with 2 mM gentamin, 10% fetal calf serum, 40 U/ml of streptomycin and 50 U/ml of penicillin. Frozen cells were cultured and passaged for one week before use. The confluent cells were then incubated in serum-free Williams Medium E for 4 hours at 37° C. with the test substances. ^14C-Acetate (18.5 kBq/ml; 0.5 μCi/ml) was then added to the solutions. The test substances were diluted in DMSO and used at the concentrations specified. […]
# Incorporation of ^14C-acetate into the non-saponifiable lipid fraction (sterol fraction) was determined by the following method: 1.4 ml of homogenates were incubated with 2.8 ml of 0.5 M KOH in EtOH with shaking for 1 hour at 70° C. […] The ^14C activity in the samples was determined, after addition of 10 ml of scintillation solution (Ultima Gold®, Packard, Merident, Conn.) in a scintillation counter. The measured values shown are to be understood as means of three independent culture dishes per test solution. […]
smiles,measurement,setting,value
CC(C)=CCC/C(C)=C/CC/C(C)=C/CC[C@]1(C)CCc2cc(O)c(C)c(C)c2O1 [R-γ-Tocotrienol],inhibition of 14C-acetate incorporation,"concentration 5×10^−6 M, relative to DMSO control (100%)",approximately 20%
same,maximum significant inhibition of 14C-acetate incorporation,"concentrations ≧5×10^−5 M, relative to DMSO control",approximately 50%
